Laboratory results from US9957263B2, “Bromodomain inhibitors” (AbbVie Inc., priority 2013, dated 2018).

Key:
BRD4 (BDI_K57-E168) = BRD4 (BDI_K57-E168) (Homo sapiens (Human), UniProt O60885); experiment: TR-FRET bromodomain binding assay, BRD4 first bromodomain; settings: His-tagged BD1, Alexa647-labeled probe 100 nM
Procedure, shortened: (§1)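 Read-out: TR-FRET ratio after 1 h at room temperature, normalized to controls and fitted for IC50, then converted to Ki. Reaction held 8 nM His-tagged domain, 1 nM Eu-anti-His antibody, Alexa647 probe (BDI 100 nM; BDII 30 nM) and test compound in 2% DMSO.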

BRD4 (BDII_E352-M457) = BRD4 (BDII_E352-M457) (Homo sapiens (Human), UniProt O60885); experiment: TR-FRET bromodomain binding assay, BRD4 second bromodomain; settings: His-tagged BD2, Alexa647-labeled probe 30 nM
Procedure, shortened: as §1

Structure (SMILES) | Ki (BRD4 (BDI_K57-E168)) | Ki (BRD4 (BDII_E352-M457))
Cn1cc(-c2cc(S(C)(=O)=O)ccc2Oc2ccc(F)cc2F)c2cc(CN3CCN(C4CCOCC4)CC3)[nH]c2c1=O [Example 116, 4-[2-(2,4-difluorophenoxy)-5-(methylsulfonyl)phenyl]-6-methyl-2-{[4-(tetrahydro-2H-pyran-4-yl)piperazin-1-yl]methyl}-1,6-dihydro-7H-pyrrolo[2,3-c]pyridin-7-one] | 3.33 nM | 98.4 nM
Cn1cc(-c2cc(S(C)(=O)=O)ccc2Oc2cccc(NCc3cccc(OC(F)(F)F)c3)c2)c2cc[nH]c2c1=O [Example 69, 6-methyl-4-[5-(methylsulfonyl)-2-(3-{[3-(trifluoromethoxy)benzyl]amino}phenoxy)phenyl]-1,6-dihydro-7H-pyrrolo[2,3-c]pyridin-7-one] | 4.1 nM | 1.6 nM
Cn1cc(-c2cc(S(C)(=O)=O)ccc2Oc2cccc(NS(=O)(=O)C3CC3)c2)c2cc[nH]c2c1=O [Example 49, N-{3-[2-(6-methyl-7-oxo-6,7-dihydro-1H-pyrrolo[2,3-c]pyridin-4-yl)-4-(methylsulfonyl)phenoxy]phenyl}cyclopropanesulfonamide] | 4.4 nM | 1 nM
Cn1cc(-c2cc(S(C)(=O)=O)ccc2Oc2cccc(C(=O)NCCCN3CCCC3=O)c2)c2cc[nH]c2c1=O [Example 27, 3-[2-(6-methyl-7-oxo-6,7-dihydro-1H-pyrrolo[2,3-c]pyridin-4-yl)-4-(methylsulfonyl)phenoxy]-N-[3-(2-oxopyrrolidin-1-yl)propyl]benzamide] | 26 nM | 11 nM
Cn1cc(-c2cc(S(C)(=O)=O)ccc2Oc2cccc(C(=O)N3CCC(C(F)(F)F)CC3)c2)c2cc[nH]c2c1=O [Example 31, 6-methyl-4-[5-(methylsulfonyl)-2-(3-{[4-(trifluoromethyl)piperidin-1-yl]carbonyl}phenoxy)phenyl]-1,6-dihydro-7H-pyrrolo[2,3-c]pyridin-7-one] | 21 nM | 11 nM
CCS(=O)(=O)Nc1cc(-c2cn(C)c(=O)c3[nH]ccc23)c(Oc2ccc(F)cc2F)cc1C(N)=O [Example 8, 5-(2,4-difluorophenoxy)-2-[(ethylsulfonyl)amino]-4-(6-methyl-7-oxo-6,7-dihydro-1H-pyrrolo[2,3-c]pyridin-4-yl)benzamide] | 1.5 nM | 1.8 nM
COc1ccc(S(=O)(=O)Nc2cccc(Oc3ccc(S(C)(=O)=O)cc3-c3cn(C)c(=O)c4[nH]ccc34)c2)cc1 [Example 39, 4-methoxy-N-{3-[2-(6-methyl-7-oxo-6,7-dihydro-1H-pyrrolo[2,3-c]pyridin-4-yl)-4-(methylsulfonyl)phenoxy]phenyl}benzenesulfonamide] | 4.6 nM | 2.1 nM
CC(=O)N1CCN(C(=O)c2cccc(Oc3ccc(S(C)(=O)=O)cc3-c3cn(C)c(=O)c4[nH]ccc34)c2)CC1 [Example 30, 4-[2-{3-[(4-acetylpiperazin-1-yl)carbonyl]phenoxy}-5-(methylsulfonyl)phenyl]-6-methyl-1,6-dihydro-7H-pyrrolo[2,3-c]pyridin-7-one] | 28 nM | 17 nM
Cn1cc(-c2cc(S(C)(=O)=O)ccc2Oc2cccc(NCc3cccc(F)c3)c2)c2cc[nH]c2c1=O [Example 68, 4-[2-{3-[(3-fluorobenzyl)amino]phenoxy}-5-(methylsulfonyl)phenyl]-6-methyl-1,6-dihydro-7H-pyrrolo[2,3-c]pyridin-7-one] | 10 nM | 4.7 nM
CCNC(=O)c1cc2c(-c3ccc(C(=O)N(CCC(=O)OC)c4ccccc4)cc3Oc3c(C)cccc3C)cn(C)c(=O)c2[nH]1 [Example 160, methyl 3-[{3-(2,6-dimethylphenoxy)-4-[2-(ethylcarbamoyl)-6-methyl-7-oxo-6,7-dihydro-1H-pyrrolo[2,3-c]pyridin-4-yl]benzoyl}(phenyl)amino]propanoate] | 1710 nM | 9.99 nM
Cn1cc(-c2cc(S(C)(=O)=O)ccc2NC2CCN(S(=O)(=O)Cc3ccccc3)CC2)c2cc[nH]c2c1=O [Example 101, 4-[2-{[1-(benzylsulfonyl)piperidin-4-yl]amino}-5-(methylsulfonyl)phenyl]-6-methyl-1,6-dihydro-7H-pyrrolo[2,3-c]pyridin-7-one] | 6 nM | 5.8 nM
Cn1cc(-c2cc(S(C)(=O)=O)ccc2Oc2ccc(F)cc2F)c2cc(CN3CCN(c4ccccn4)CC3)[nH]c2c1=O [Example 132, 4-[2-(2,4-difluorophenoxy)-5-(methylsulfonyl)phenyl]-6-methyl-2-{[4-(pyridin-2-yl)piperazin-1-yl]methyl}-1,6-dihydro-7H-pyrrolo[2,3-c]pyridin-7-one] | 26.9 nM | 128 nM
CCS(=O)(=O)c1ccc(Oc2c(C)cccc2Cl)c(-c2cn(C)c(=O)c3[nH]c(C(=O)NCCC#N)cc23)c1 [Example 123, 4-[2-(2-chloro-6-methylphenoxy)-5-(ethylsulfonyl)phenyl]-N-(2-cyanoethyl)-6-methyl-7-oxo-6,7-dihydro-1H-pyrrolo[2,3-c]pyridine-2-carboxamide] | 39.9 nM | 5.6 nM
Cc1cc(F)ccc1S(=O)(=O)Nc1cccc(Oc2ccc(S(C)(=O)=O)cc2-c2cn(C)c(=O)c3[nH]ccc23)c1 [Example 52, 4-fluoro-2-methyl-N-{3-[2-(6-methyl-7-oxo-6,7-dihydro-1H-pyrrolo[2,3-c]pyridin-4-yl)-4-(methylsulfonyl)phenoxy]phenyl}benzenesulfonamide] | 2 nM | 1.1 nM
COC1CCC(C(=O)N2CCC(Nc3ccc(S(C)(=O)=O)cc3-c3cn(C)c(=O)c4[nH]ccc34)CC2)CC1 (centres unmarked) [Example 94, 4-[2-({1-[(4-methoxycyclohexyl)carbonyl]piperidin-4-yl}amino)-5-(methylsulfonyl)phenyl]-6-methyl-1,6-dihydro-7H-pyrrolo[2,3-c]pyridin-7-one] | 30 nM | 20 nM
COCCOCC(=O)N1CCC(Nc2ccc(S(C)(=O)=O)cc2-c2cn(C)c(=O)c3[nH]ccc23)CC1 [Example 98, 4-[2-({1-[(2-methoxyethoxy)acetyl]piperidin-4-yl}amino)-5-(methylsulfonyl)phenyl]-6-methyl-1,6-dihydro-7H-pyrrolo[2,3-c]pyridin-7-one] | 14 nM | 20 nM
CCNC(=O)c1cc2c(-c3cc(S(=O)(=O)CC)ccc3Oc3c(C)cccc3Cn3ccnc3)cn(C)c(=O)c2[nH]1 [Example 150, N-ethyl-4-{5-(ethylsulfonyl)-2-[2-(1H-imidazol-1-ylmethyl)-6-methylphenoxy]phenyl}-6-methyl-7-oxo-6,7-dihydro-1H-pyrrolo[2,3-c]pyridine-2-carboxamide] | 2680 nM | 73.9 nM
CSCCCN[C@H]1CC[C@H](Nc2ccc(S(C)(=O)=O)cc2-c2cn(C)c(=O)c3[nH]ccc23)CC1 [Example 112, 6-methyl-4-{2-[(trans-4-{[3-(methylsulfanyl)propyl]amino}cyclohexyl)amino]-5-(methylsulfonyl)phenyl}-1,6-dihydro-7H-pyrrolo[2,3-c]pyridin-7-one] | 5.4 nM | 10 nM
Cn1cc(-c2cc(S(C)(=O)=O)ccc2Oc2cccc(NCC3CC3)c2)c2cc[nH]c2c1=O [Example 80, 4-[2-{3-[(cyclopropylmethyl)amino]phenoxy}-5-(methylsulfonyl)phenyl]-6-methyl-1,6-dihydro-7H-pyrrolo[2,3-c]pyridin-7-one] | 19 nM | 4.6 nM
COc1cccc(CNc2cccc(Oc3ccc(S(C)(=O)=O)cc3-c3cn(C)c(=O)c4[nH]ccc34)c2)c1 [Example 66, 4-[2-{3-[(3-methoxybenzyl)amino]phenoxy}-5-(methylsulfonyl)phenyl]-6-methyl-1,6-dihydro-7H-pyrrolo[2,3-c]pyridin-7-one] | 3.8 nM | 1.7 nM
Cn1cc(-c2cc(S(C)(=O)=O)ccc2NC2CCN(C(=O)CCN3CCOCC3)CC2)c2cc[nH]c2c1=O [Example 99, 6-methyl-4-[5-(methylsulfonyl)-2-({1-[3-(morpholin-4-yl)propanoyl]piperidin-4-yl}amino)phenyl]-1,6-dihydro-7H-pyrrolo[2,3-c]pyridin-7-one] | 12 nM | 28 nM
CCS(=O)(=O)c1ccc(OC2CCCCC2)c(-c2cn(C)c(=O)c3[nH]c(-c4cnn(C5CCNCC5)c4)cc23)c1 [Example 149, 4-[2-(cyclohexyloxy)-5-(ethylsulfonyl)phenyl]-6-methyl-2-[1-(piperidin-4-yl)-1H-pyrazol-4-yl]-1,6-dihydro-7H-pyrrolo[2,3-c]pyridin-7-one] | 2.81 nM | 0.669 nM
COc1cc(CN2CCC(Nc3ccc(S(C)(=O)=O)cc3-c3cn(C)c(=O)c4[nH]ccc34)CC2)cc(OC)c1OC [Example 88, 6-methyl-4-[5-(methylsulfonyl)-2-{[1-(3,4,5-trimethoxybenzyl)piperidin-4-yl]amino}phenyl]-1,6-dihydro-7H-pyrrolo[2,3-c]pyridin-7-one] | 4.9 nM | 23 nM
CCNC(=O)c1cc2c(-c3ccc(C(=O)N(CC(=O)NC)Cc4ccccn4)cc3Oc3c(C)cccc3C)cn(C)c(=O)c2[nH]1 [Example 153, 4-[2-(2,6-dimethylphenoxy)-4-{[2-(methylamino)-2-oxoethyl](pyridin-2-ylmethyl)carbamoyl}phenyl]-N-ethyl-6-methyl-7-oxo-6,7-dihydro-1H-pyrrolo[2,3-c]pyridine-2-carboxamide] | 1040 nM | 2.61 nM
Cn1cc(-c2cc(S(C)(=O)=O)ccc2N[C@H]2CC[C@H](NCc3ccc(Cl)cc3)CC2)c2cc[nH]c2c1=O [Example 113, 4-[2-({trans-4-[(4-chlorobenzyl)amino]cyclohexyl}amino)-5-(methylsulfonyl)phenyl]-6-methyl-1,6-dihydro-7H-pyrrolo[2,3-c]pyridin-7-one] | 2.5 nM | 7 nM
